Results reported in ChEMBL document CHEMBL5244211, “Current anti-diabetic agents and their molecular targets: A review” (Eur J Med Chem, 2018).

Tests used:
[1] = molecular target: T1, Free fatty acid receptor 1 (Homo sapiens, UniProt O14842); assay: Agonist activity at human GPR40 expressed in HEK293 cells incubated for 1 hrs by calcium flux assay; type: cell-based
[2] = molecular target: T1, Free fatty acid receptor 1; assay: Agonist activity at FFAR1 (unknown origin) incubated for 16 hrs by Promoter-luciferase assay
[3] = molecular target: Free fatty acid receptor 1 (Rattus norvegicus) (UniProt Q8K3T4); assay: In vivo agonist activity at FFAR1 in streptozotocin (STZ)-induced Wistar rat assessed as reduction in blood glucose AUC at 1 mg/kg,iv and measured upto 120 mins by OGTT analysis; type: functional, organism-based; parameters: scale not given: the % may be the effect or the level left
[4] = molecular target: Free fatty acid receptor 1 (Rattus norvegicus) (UniProt Q8K3T4); assay: In vivo agonist activity at FFAR1 in iv dosed streptozotocin (STZ)-induced Wistar rat model assessed as reduction in blood glucose AUC and measured upto 120 mins by OGTT analysis; type: functional, organism-based
[5] = Oral bioavailability in Wistar rat at 3 mg/kg; type: ADME, organism-based; details: in vivo
[6] = Clearance in Wistar rat at 1 mg/kg,iv; type: ADME, organism-based; details: in vivo

Chain of Free fatty acid receptor 1 (Rattus norvegicus) (Q8K3T4 whole entry): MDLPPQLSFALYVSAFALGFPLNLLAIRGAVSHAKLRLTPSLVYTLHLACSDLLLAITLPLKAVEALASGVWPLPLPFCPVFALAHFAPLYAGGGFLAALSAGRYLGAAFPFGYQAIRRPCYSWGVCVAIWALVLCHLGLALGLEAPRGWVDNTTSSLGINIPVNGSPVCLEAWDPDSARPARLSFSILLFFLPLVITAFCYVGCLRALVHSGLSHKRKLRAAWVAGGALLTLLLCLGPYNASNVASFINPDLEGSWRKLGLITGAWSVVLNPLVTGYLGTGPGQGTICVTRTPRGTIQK
T1 sequence (O14842 whole entry): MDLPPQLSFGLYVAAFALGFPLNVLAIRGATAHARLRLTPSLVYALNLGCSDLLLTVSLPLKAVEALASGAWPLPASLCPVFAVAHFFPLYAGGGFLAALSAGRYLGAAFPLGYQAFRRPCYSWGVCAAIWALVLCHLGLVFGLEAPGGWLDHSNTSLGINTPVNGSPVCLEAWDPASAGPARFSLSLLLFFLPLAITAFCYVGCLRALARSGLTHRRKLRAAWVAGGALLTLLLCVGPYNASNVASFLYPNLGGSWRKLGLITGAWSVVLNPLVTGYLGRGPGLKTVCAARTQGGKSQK

Compound	EC50 [1]	EC50 [2]	Activity [3]	ED50 [4]	bioavailability [5]	clearance [6]
COc1ccc(F)c(-c2ncc(COc3ccc([C@@H](CC(=O)O)C4CC4)cc3)nc2OCCC(F)(F)F)c1	6 nM					
CC#CC(CC(=O)O)c1ccc(OCc2cccc(CN3CCc4oc(C5CC5)nc4C3)c2)cc1 (stereo unspecified)		50 nM	46%	0.09 mg/kg	45%	0.27 mL/min/kg
